Data as given in PMC8072890, “Aminoalkylamides of Eremomycin Exhibit an Improved Antibacterial Activity” (Pharmaceuticals, 2021).
≈ marks a conversion by molar mass, not a printed value. Like-named read-outs stand apart in the source and are kept apart here. Marks after values point to notes of the source that are not given here.

Legend:
[1] = mice, IV administration; previous investigation; cited from earlier work
Method: For the characterization of the therapeutic potential of the lead compound 4e, an acute toxicity test for an IV single-dose administration was also carried out (Table 2). […] The drug administration in doses of 130–190 mg/kg led to the death of some animals from 2 to 15 min after injections as a result of cardiac and respiratory arrest against the background of neurotoxicity. […] The quantitative parameters of acute toxicity (LD50 and MTD (LD10) values ...

[2] = tested on: E. faecalis 559; assay type: cell-based; settings: sensitive strain; broth dilution micromethod, CLSI; modal values (or range) of 3–5 independent tests
From the text: (§1) The antimicrobial activity of semisynthetic derivatives of eremomycin 4a–q was studied in comparison with vancomycin on a wide panel of Gram-positive bacteria sensitive (Staphylococcus aureus ATCC 29213, S. aureus R-2, S. haemoliticus 602, S. pneumoniae ATCC 6305, Enteroccus faecium 4, and E. faecalis 559) and resistant to vancomycin (S. aureus 3797, S.aureus 3798, E. faecium 2, E. faecium 3576, E. faecalis 9, E. faecalis 583, and E. gallinarum BΠ 4147), information about the strains given in Table S3. The minimum microbial inhibitory concentration (MIC) for the test compounds was determined by the broth dilution micromethod according to CLSI guidelines, and vancomycin and a standard strain S. aureus ATCC 29213 used as controls (Figure 2 and Tables S4 and S5).
(§2) Table S4. Antibacterial activity of vancomycin and derivatives 4a–q against sensitive Gram-positive bacteria.
(§3) Strain/MIC (Minimum inhibitory concentration, μg/ml)*
(§4) Compound m n R S.aureus АТСС S.aureus R-2 S.haemoliticus S.pneumoniae АТСС E. faecium 4 E. faecalis 559
(§5) *MICs are presented as modal values for 3–5 independently replicated MIC tests for each strain and for the antibiotics. In the range of the
(§6) obtained MIC values, the obtained modal values are highlighted in bold.

[3] = tested on: E. faecium 4; assay type: cell-based; settings: sensitive strain; broth dilution micromethod, CLSI; modal values (or range) of 3–5 independent tests
From the text: as §1, §2, §3, §4, §5, §6

[4] = tested on: S. aureus R-2; assay type: cell-based; settings: sensitive strain; broth dilution micromethod, CLSI; modal values (or range) of 3–5 independent tests
From the text: as §1, §2, §3, §4, §5, §6

[5] = tested on: S. haemoliticus 602; assay type: cell-based; settings: sensitive strain; broth dilution micromethod, CLSI; modal values (or range) of 3–5 independent tests
From the text: as §1, §2, §3, §4, §5, §6

[6] = tested on: Staphylococcus aureus ATCC 29213; assay type: cell-based; settings: vancomycin-sensitive control strain; broth dilution micromethod, CLSI; modal values (or range) of 3–5 independent tests
From the text: as §1, §2, §3, §4, §5, §6

[7] = tested on: E. faecalis 9; assay type: cell-based; settings: strain resistant to vancomycin; broth dilution micromethod, CLSI; modal values (or range) of 3–5 independent tests
From the text: as §1
(§7) Table S5. Antibacterial activity of vancomycin and derivatives 4a–q against resistant Gram-positive bacteria.
(§8) Strain/MIC (minimum inhibitory concentration; μg/ml)
(§9) Compound m n R S.aureus 3797 S.aureus 3798 E. faecium 2 E. faecium 3576 E. faecalis 9 E. faecalis 583 E. gallinarum
(§10) *MICs are presented as modal values for 3–5 independently replicate MIC tests for each strain and for the antibiotics. In the range of the obtained MIC
(§11) values, the obtained modal values are highlighted in bold.

[8] = tested on: S.aureus 3798; assay type: cell-based; settings: strain resistant to vancomycin; broth dilution micromethod, CLSI; modal values (or range) of 3–5 independent tests
From the text: as §1, §7, §8, §9, §10, §11

[9] = tested on: E. faecium 2; assay type: cell-based; settings: strain resistant to vancomycin; broth dilution micromethod, CLSI; modal values (or range) of 3–5 independent tests
From the text: as §1, §7, §8, §9, §10, §11

[10] = tested on: E. faecium 3576; assay type: cell-based; settings: strain resistant to vancomycin; broth dilution micromethod, CLSI; modal values (or range) of 3–5 independent tests
From the text: as §1, §7, §8, §9, §10, §11

[11] = tested on: E. gallinarum BΠ 4147; assay type: cell-based; settings: strain resistant to vancomycin; broth dilution micromethod, CLSI; modal values (or range) of 3–5 independent tests
From the text: as §1, §7, §8, §9, §10, §11

[12] = tested on: E. faecalis 583; assay type: cell-based; settings: strain resistant to vancomycin; broth dilution micromethod, CLSI; modal values (or range) of 3–5 independent tests
From the text: as §1, §7, §8, §9, §10, §11

[13] = tested on: S. aureus 3797; assay type: cell-based; settings: strain resistant to vancomycin; broth dilution micromethod, CLSI; modal values (or range) of 3–5 independent tests
From the text: as §1, §7, §8, §9, §10, §11

[14] = tested on: S. aureus (strain 10, clinical isolate); assay: Mouse staphylococcal sepsis model, single IV administration; assay type: in vivo, mice (SHK colony); settings: for Survival: 30 min after infection, n = 10; for ED50: mice infected IV with lethal dose of S. aureus (8 × 10^8 CFU/mouse), single IV dose 30 min after infection, n = 10 per group, observed 14 days, Behrens method
Method: A comparative study of the efficacy of eremomycin N-(2-((2-fluorobenzyl)amino)ethyl)amide (4e) and vancomycin was carried out in a mice staphylococcal sepsis model. Healthy female mice of the SHK colony weighing 20–22 g after two-week quarantine were randomized into groups (n = 10) and received S. aureus as the infectious agent (strain 10, clinical isolate, adapted for growth in vivo by five-fold passaging in mice). In the experiment, female mice of the SHK colony weighing 20–22 g were used. S. aureus (strain 10, clinical isolate), adapted for growth in vivo by five-fold passaging in mice, was used as the infectious agent. Initially, the lethal dose (LD100) of staphylococcus was determined for this mouse line using the intravenous infection route. The mice deaths were counted daily for 10 days. Thus, the lethal dose (LD100) was defined as 8 × 10^8 CFU/mouse. Afterwards, the mice were seated in cages of 10 heads and were infected intravenously with S. aureus at a lethal dose, and the efficacy of the tested drugs was determined by the ED50 value (i.e., the dose at which 50% of the experimental animals survive). Then, 30 min after infection, the mice were injected intravenously with eremomycin N-(2-((2-fluorobenzyl)amino)ethyl)amide (4e) at single doses from 0.1 to 2.5 mg/kg. or vancomycin at doses from 2.5 to 7.5 mg/kg. As a control dose, a group of untreated animals infected with a lethal dose of S. aureus was present in the experiment. The determination of ED50 of the tested compounds was carried out in one experiment under a single control using the Behrens method.

[15] = Acute toxicity, single IV injection in mice; assay type: in vivo, F1 (CBAxC57Bl) mice; settings: for therapeutic index (TI = LD50/ED50): laboratory animals (mice), IV, LD50 acute toxicity / ED50 staphylococcal sepsis
Method: The F1 (CBAxC57Bl) mice (18–20 g) were randomized into groups (n = 6) and received eremomycin N-(2-((2-fluorobenzyl)amino)ethyl)amide 4e through single intravenous injections. The intact animals were used as the control. The substance was dissolved in a 5% glucose solution and was administrated in dosage ranges of 130–200 mg/kg into the tail veins of the mice. The concentration of 4e in the injected solution was 5 mg/mL.
The acute toxicity was estimated by the mortality and survival time, as well as by the body weight gain/loss, food consumption, and clinical symptoms of intoxication, including behavioral reactions. […] The LD50 values and the maximum tolerated doses (MTD = LD10) were calculated using the method of Litchfield and Wilcoxon using the StatPlus Professional 3.8.0 software.

[16] = tested on: S. pneumoniae ATCC 6305; assay: MIC, broth dilution micromethod (CLSI); assay type: cell-based; settings: sensitive strain, modal values (or range) of 3–5 independent tests
From the text: as §1, §2, §3, §4, §5, §6

[17] = mouse staphylococcal sepsis model, single IV

Row | Compound | MIC E. faecalis 559 [2] [µg/mL] | MIC E. faecium 4 [3] [µg/mL] | MIC S.aureus R-2 [4] [µg/mL] | MIC S.haemoliticus 602 [5] [µg/mL] | MIC S.aureus ATCC 29213 [6] [µg/mL] | MIC E. faecalis 9 [7] [µg/mL] | MIC S.aureus 3798 [8] [µg/mL] | MIC E. faecium 2 [9] [µg/mL] | MIC E. faecium 3576 [10] [µg/mL] | MIC E. gallinarum ВП 4147 [11] [µg/mL] | MIC E. faecalis 583 [12] [µg/mL] | MIC S.aureus 3797 [13] [µg/mL] | MIC S.pneumoniae ATCC 6305 [16] [µg/mL] | also measured
1 | CN[C@H](CC(C)C)C(=O)N[C@H]1C(=O)N[C@@H](CC(N)=O)C(=O)N[C@H]2C(=O)N[C@H]3C(=O)N[C@H](C(=O)N[C@H](C(=O)O)c4cc(O)cc(O)c4-c4cc3ccc4O)[C@H](O)c3ccc(c(Cl)c3)Oc3cc2cc(c3O[C@@H]2O[C@H](CO)[C@@H](O)[C@H](O)[C@H]2O[C@H]2C[C@](C)(N)[C@H](O)[C@H](C)O2)Oc2ccc(cc2Cl)[C@H]1O [Vancomycin, vancomycin, reference compound] | 2 (≈ 1.38 µM) | 4 (≈ 2.76 µM) | 1 (≈ 0.69 µM) | 2 (≈ 1.38 µM) | 0.25 to 0.5 | 8 (≈ 5.52 µM) | 8 (≈ 5.52 µM) | 8 (≈ 5.52 µM) | > 32 | 8 (≈ 5.52 µM) | 32 (≈ 22.1 µM) | 8 (≈ 5.52 µM) |  | LD50 [1]: 525 mg/kg; Survival ([14]; dose 2.5 mg/kg, single IV): 20%; Survival ([14]; dose 3.5 mg/kg, single IV): 40%; Survival ([14]; dose 4.5 mg/kg, single IV): 50%; Survival ([14]; dose 5.5 mg/kg, single IV): 80%; Survival ([14]; dose 6.5 mg/kg, single IV): 90%; Survival ([14]; dose 7.5 mg/kg, single IV): 100%; ED50 [14]: 4.1 mg/kg; therapeutic index (TI = LD50/ED50) [15]: 128
2 | Eremomycin N-(2-((2,6-difluorobenzyl)amino)ethyl)amide [4j] | 0.25 | 0.25 to 0.5 | 0.06 | 0.125 | 0.03 to 0.06 | 0.03 | 1 | 0.5 to 1 | 1 | 1 | 0.5 | 0.5 | 0.03 | 
3 | Eremomycin N-(2-((2-fluorobenzyl)amino)ethyl)amide [4e] | 0.125 | 0.25 | 0.03 to 0.06 | 0.125 | 0.125 | 0.03 to 0.06 | 1 | 0.5 | 0.5 to 1 | 0.5 | 0.25 to 0.5 | 0.5 | 0.01 | Survival ([14]; dose 0.25 mg/kg, single IV): 30%; Survival ([14]; dose 0.5 mg/kg, single IV): 50%; Survival ([14]; dose 1 mg/kg, single IV): 60%; Survival ([14]; dose 1.5 mg/kg, single IV): 80%; Survival ([14]; dose 2.5 mg/kg, single IV): 100%; ED50 [14]: 0.55 mg/kg; ED50 ratio: times more active than eremomycin [14, 17]: 3.3 times; ED50 ratio: times more effective than vancomycin [14, 17]: 7.5 times; outcome after the highest dose ([15]; 200 mg/kg, single IV, mice): died immediately; delayed death of animals ([15]; 130–200 mg/kg, single IV, mice, observed 30 days): No delayed death; therapeutic index (TI = LD50/ED50) [15]: 318; LD50 ([15]; mice, single IV injection in 5% glucose, 5 mg/mL, n = 6 per group, Litchfield and Wilcoxon, mean (deviation for p ≤ 0.05)): 175.5 (161.7 ÷ 189.8) * mg/kg; MTD (LD10) ([15]; mice, single IV injection, n = 6 per group, Litchfield and Wilcoxon): 144.7 mg/kg
4 | Eremomycin N-(2-((2-fluorobenzyl)amino)propyl)amide [4f] | 0.25 to 0.5 | 0.25 | 0.03 | 0.25 to 0.5 | 0.125 | 0.06 | 2 | 1 | 1 | 0.5 | 1 | 0.5 | 0.03 | 
5 | Eremomycin N-(2-((4-methylbenzyl)amino)ethyl)amide [4c] | 0.25 | 0.25 | 0.25 | 0.25 | 0.25 | 0.03 | 1 | 1 | 1 | 0.5 | 1 to 2 | 0.5 | 0.01 | 
6 | Eremomycin N-(2-((3,5-difluorobenzyl)amino)ethyl)amide [4k] | 0.5 | 0.5 | 0.125 to 0.25 | 0.125 | 0.25 | 0.06 | 1 | 1 | 1 | 1 | 1 | 0.5 | 0.01 | 
7 | Eremomycin N-(2-((3,4-dichlorobenzyl)amino)ethyl)amide [4o] | 2 | 1 | 1 | 0.5 | 1 | 0.25 to 0.5 | 1 to 2 | 2 | 2 | 2 | 2 | 2 | 0.5 | 
